In patent US5300279A, “Organic amine phosphonic acid complexes for the treatment of calcific tumors” (The Dow Chemical Company, priority 1990, dated 1994):

assay: biolocalization of the radionuclide in rats (tissue distribution after tail vein injection); type: in vivo, male Sprague Dawley rats; details: Gd-159; two hour; average of five rats
Description: Studies to determine the qualitative biodistribution of the various radionuclides were conducted by injecting the compositions into rats and obtaining the gamma ray images of the entire animal at various times up to two hours after injection.
Laboratory rats were injected with the above complex (50-100 μl) via the tail vein. After 2 hours, the animals were sacrificed by cervical dislocation and organs and tissues removed. Samples were counted with a NaI counter to determine the biolocalization of the radionuclide.

Row | Structure (SMILES) | % Dose in Blood [% Dose] | % Dose in Kidneys [% Dose] | % Dose in Liver [% Dose] | % Dose in Muscle [% Dose] | % Dose in Skeleton [% Dose]
1 | O=P(O)(O)CN(CCO)CCN(CP(=O)(O)O)CP(=O)(O)O.[159Gd+3] [Example 20] | 0.14 | 0.58 | 0.57 | 0.76 | 60
2 | O=P(O)(O)CN(CCN(CP(=O)(O)O)CP(=O)(O)O)CP(=O)(O)O.[159Gd+3] [Example 19] | 0.15 | 0.33 | 0.25 | 0.56 | 57

same assay, conditions: Gd-159; two hour; ratio of percent dose per gram; average of five rats

Row | Structure (SMILES) | Bone/Blood | Bone/Muscle
3 | O=P(O)(O)CN(CCO)CCN(CP(=O)(O)O)CP(=O)(O)O.[159Gd+3] [Example 20] | 335 | 548
4 | O=P(O)(O)CN(CCN(CP(=O)(O)O)CP(=O)(O)O)CP(=O)(O)O.[159Gd+3] [Example 19] | 305 | 577

same assay, conditions: Ho-166; Table X; time not stated; average of 3 rats

Row | Structure (SMILES) | % Dose in Blood [% Dose] | % Dose in Kidney [% Dose] | % Dose in Liver [% Dose] | % Dose in Muscle [% Dose] | % Dose in Skeleton [% Dose] | % Dose in Spleen [% Dose]
5 | O=P(O)(O)CN(CCN(CP(=O)(O)O)CP(=O)(O)O)Cc1ccccc1.[166Ho+3] [Example 33] | 0.09 | 0.34 | 0.13 | 0.31 | 65 | 0.01
6 | CC(C)N(CCN(CP(=O)(O)O)CP(=O)(O)O)CP(=O)(O)O.[166Ho+3] [Example 31] | 0.22 | 0.44 | 0.28 | 0.68 | 65 | 0.01
7 | CN(CCN(CP(=O)(O)O)CP(=O)(O)O)CP(=O)(O)O.[166Ho+3] [Example 29] | 0.12 | 0.30 | 0.14 | 0.34 | 68 | 0.01

same assay, conditions: Ho-166; Table X; time not stated; ratio of percent dose per gram; average of 3 rats

Row | Structure (SMILES) | Bone/Blood | Bone/Muscle
8 | O=P(O)(O)CN(CCN(CP(=O)(O)O)CP(=O)(O)O)Cc1ccccc1.[166Ho+3] [Example 33] | 542 | 1093
9 | CC(C)N(CCN(CP(=O)(O)O)CP(=O)(O)O)CP(=O)(O)O.[166Ho+3] [Example 31] | 245 | 520
10 | CN(CCN(CP(=O)(O)O)CP(=O)(O)O)CP(=O)(O)O.[166Ho+3] [Example 29] | 470 | 1133

same assay, conditions: Ho-166; two hours; comparative; average of 2 rats (MDP, HEDP, PYP), 1 rat (IDP, HDP)

Row | Structure (SMILES) | % Dose In Blood [% Dose] | % Dose In Bone [% Dose] | % Dose In Liver [% Dose]
11 | O=P(O)(O)OP(=O)(O)O.[166Ho+3] [Ho-166 PYP, reference compound] | 0.63 | 3 | 67
12 | O=P(O)(O)C(O)P(=O)(O)O.[166Ho+3] [H0-166 HDP, reference compound] | 0.04 | 0.2 | 2
13 | O=P(O)(O)NP(=O)(O)O.[166Ho+3] [Ho-166 IDP, reference compound] | 0.28 | 2 | 65
14 | CC(O)(P(=O)(O)O)P(=O)(O)O.[166Ho+3] [Ho-166 HEDP, reference compound] | 10.1 | 25 | 1.8
15 | O=P(O)(O)CP(=O)(O)O.[166Ho+3] [Ho-166 MDP, reference compound] | 1.5 | 1 | 64

same assay, conditions: Ho-166; two hours; comparative; ratio of percent dose per gram

Row | Structure (SMILES) | Bone/Blood | Bone/Muscle
16 | O=P(O)(O)OP(=O)(O)O.[166Ho+3] [Ho-166 PYP, reference compound] | 4 | 13
17 | O=P(O)(O)C(O)P(=O)(O)O.[166Ho+3] [H0-166 HDP, reference compound] | 4 | 4
18 | O=P(O)(O)NP(=O)(O)O.[166Ho+3] [Ho-166 IDP, reference compound] | 6 | 17
19 | CC(O)(P(=O)(O)O)P(=O)(O)O.[166Ho+3] [Ho-166 HEDP, reference compound] | 2 | 17
20 | O=P(O)(O)CP(=O)(O)O.[166Ho+3] [Ho-166 MDP, reference compound] | 0.5 | 6

same assay, conditions: Lu-177 (Ex. 14, 15; 5 rats) or Ho-166 (Ex. 16; 3 rats); two hour

Row | Structure (SMILES) | % Dose in Blood [% Dose] | % Dose in Kidneys [% Dose] | % Dose in Liver [% Dose] | % Dose in Muscle [% Dose] | % Dose in Skeleton [% Dose]
21 | O=P(O)(O)CN(CCN(CP(=O)(O)O)CP(=O)(O)O)CP(=O)(O)O.[177Lu+3] [Example 14] | 0.10 | 0.28 | 0.48 | 0.44 | 51
22 | O=P(O)(O)CN(CCO)CCN(CP(=O)(O)O)CP(=O)(O)O.[177Lu+3] [Example 15] | 0.17 | 0.30 | 1.9 | 0.56 | 58

same assay, conditions: Lu-177 (Ex. 14, 15; 5 rats) or Ho-166 (Ex. 16; 3 rats); two hour; ratio of percent dose per gram

Row | Structure (SMILES) | Bone/Blood | Bone/Muscle
23 | O=P(O)(O)CN(CCN(CP(=O)(O)O)CP(=O)(O)O)CP(=O)(O)O.[177Lu+3] [Example 14] | 500 | 1380
24 | O=P(O)(O)CN(CCO)CCN(CP(=O)(O)O)CP(=O)(O)O.[177Lu+3] [Example 15] | 370 | 570

same assay, conditions: Sm-153; rats; 2 hours; average of 5 rats

Row | Structure (SMILES) | % Dose in Blood [% Dose] | % Dose in Liver [% Dose] | % Dose in Skeleton [% Dose] | % Dose in Urine [% Dose]
25 | O=P(O)(O)CN(CCN(CCN(CP(=O)(O)O)CP(=O)(O)O)CCN(CP(=O)(O)O)CP(=O)(O)O)CP(=O)(O)O.[153Sm+3] [Example 8] | 0.25 | 0.18 | 28 | 65
26 | O=P(O)(O)CN(CCN(CP(=O)(O)O)CP(=O)(O)O)CCN(CP(=O)(O)O)CP(=O)(O)O.[153Sm+3] [Example 4] | 0.16 | 0.27 | 30 | 74
27 | O=P(O)(O)CN(CCO)CCN(CP(=O)(O)O)CP(=O)(O)O.[153Sm+3] [Example 6] | 0.035 | 0.45 | 57 | 50

same assay, conditions: Sm-153; rats; 2 hours; ratio of percent dose per gram; average of 5 rats

Row | Structure (SMILES) | Bone/Blood | Bone/Muscle
28 | O=P(O)(O)CN(CCN(CCN(CP(=O)(O)O)CP(=O)(O)O)CCN(CP(=O)(O)O)CP(=O)(O)O)CP(=O)(O)O.[153Sm+3] [Example 8] | 80 | 410
29 | O=P(O)(O)CN(CCN(CP(=O)(O)O)CP(=O)(O)O)CCN(CP(=O)(O)O)CP(=O)(O)O.[153Sm+3] [Example 4] | 224 | 220
30 | O=P(O)(O)CN(CCO)CCN(CP(=O)(O)O)CP(=O)(O)O.[153Sm+3] [Example 6] | 1300 | 1300

same assay, conditions: Sm-153; two hours; comparative; average of 5 rats (MDP, HEDP), 3 rats (PYP, IDP)

Row | Structure (SMILES) | % Dose In Blood [% Dose] | % Dose In Bone [% Dose] | % Dose In Liver [% Dose]
31 | O=P(O)(O)CP(=O)(O)O.[153Sm+3] [Sm-153 MDP, reference compound] | 0.23 | 2 | 85
32 | CC(O)(P(=O)(O)O)P(=O)(O)O.[153Sm+3] [Sm-153 HEDP, reference compound] | 13 | 21 | 3.5
33 | O=P(O)(O)OP(=O)(O)O.[153Sm+3] [Sm-153 PYP, reference compound] | 0.23 | 2 | 73
34 | O=P(O)(O)NP(=O)(O)O.[153Sm+3] [Sm-153 IDP, reference compound] | 0.04 | 0.6 | 36

same assay, conditions: Sm-153; two hours; comparative; ratio of percent dose per gram

Row | Structure (SMILES) | Bone/Blood | Bone/Muscle
35 | O=P(O)(O)CP(=O)(O)O.[153Sm+3] [Sm-153 MDP, reference compound] | 9 | 7
36 | CC(O)(P(=O)(O)O)P(=O)(O)O.[153Sm+3] [Sm-153 HEDP, reference compound] | 1 | 11
37 | O=P(O)(O)OP(=O)(O)O.[153Sm+3] [Sm-153 PYP, reference compound] | 7 | 15
38 | O=P(O)(O)NP(=O)(O)O.[153Sm+3] [Sm-153 IDP, reference compound] | 11 | 8

same assay, conditions: Yb-175; rats; two hour; average of 5 rats

Row | Structure (SMILES) | % Dose in Blood [% Dose] | % Dose in Liver [% Dose] | % Dose in Skeleton [% Dose]
39 | O=P(O)(O)CN(CCO)CCN(CP(=O)(O)O)CP(=O)(O)O.[175Yb+3] [Example 11] | 0.231 | 0.214 | 56
40 | O=P(O)(O)CN(CCN(CP(=O)(O)O)CP(=O)(O)O)CCN(CP(=O)(O)O)CP(=O)(O)O.[175Yb+3] [Example 10] | 0.116 | 0.112 | 25
41 | O=P(O)(O)CN(CCN(CP(=O)(O)O)CP(=O)(O)O)CP(=O)(O)O.[175Yb+3] [Example 9] | 0.074 | 0.138 | 50
42 | O=P(O)(O)CN(CP(=O)(O)O)CP(=O)(O)O.[175Yb+3] [Example 13] | 0.204 | 0.236 | 63

same assay, conditions: Yb-175; rats; two hour; ratio of percent dose per gram; average of 5 rats

Row | Structure (SMILES) | Bone/Blood | Bone/Muscle
43 | O=P(O)(O)CN(CCO)CCN(CP(=O)(O)O)CP(=O)(O)O.[175Yb+3] [Example 11] | 190 | 572
44 | O=P(O)(O)CN(CCN(CP(=O)(O)O)CP(=O)(O)O)CCN(CP(=O)(O)O)CP(=O)(O)O.[175Yb+3] [Example 10] | 179 | 366
45 | O=P(O)(O)CN(CCN(CP(=O)(O)O)CP(=O)(O)O)CP(=O)(O)O.[175Yb+3] [Example 9] | 562 | 619
46 | O=P(O)(O)CN(CP(=O)(O)O)CP(=O)(O)O.[175Yb+3] [Example 13] | 256 | 876
